Data taken from patent US12441727B2, “Tricyclic compounds as inhibitors of KRAS” (Incyte Corporation, priority 2021, dated 2025).
pIC50: −log10 of the molar value.

Experiments:
KRAS G12C = KRAS G12C (Homo sapiens, UniProt P01116, G12C); assay: GDP-GTP exchange assay (KRAS_G12C exchange assay); format: biochemical; settings: bodipy-loaded KRAS G12C 2.5 nM, SOS1 150 nM, 2 hours pre-incubation with inhibitor; read-out: G12C_exchange
How it was run: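 Bodipy-GDP-loaded KRAS G12C (2.5 nM final) preincubated 2 hours with compound in 25 mM Hepes pH 7.5, 50 mM NaCl, 10 mM MgCl2, 0.01% Brij-35; exchange started with 500 uM GppNHp and 150 nM SOS1, run 2 hours at ambient temperature. Fluorescence read at 485/520 nm; IC50 by four-parameter logistic fit.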

[1] = Human whole blood stability; format: in vitro ADME; settings: percent remaining at 4 hr, 1 μM, 37° C.
[2] = test system: KRAS_G12C pERK in MIA PaCa-2 cells; assay: Whole Blood pERK1/2 HTRF assay (KRAS_G12C WB pERK assay); format: cell-based, human; settings: Homo sapiens, compound in whole blood, 4 hours, read-out: G12C_WB_pERK
How it was run: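 MIA PaCa-2 (KRAS G12C) cells were grown 2 days, then exposed for 4 h at 37 °C to compound spiked into whole blood (0.5% DMSO). After PBS washes and lysis, phospho-ERK1/2 was read by HTRF at 665/620 nm, and the IC50 came from a curve fit.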

KRAS_G12C pERK = assay: Cellular pERK HTRF assay (KRAS_G12C pERK assay); format: cell-based, human; settings: Homo sapiens, 4 h, KRAS G12C cells, 4 hours incubation with compound; read-out: G12C_pERK
How it was run: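 KRAS-mutant (G12C, G12D, G12V) and KRAS WT cancer cell lines, plated overnight in RPMI/10% FBS, were treated with compound (0.1% DMSO) at 37 °C for 4 h (G12C, G12V) or 2 h (G12D). Lysates were probed with anti-phospho-ERK1/2 HTRF antibody pair read at 665/620 nm; IC50 fitted.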

KRAS G12C, sequence (P01116 1-188 isoform P01116-2 G12C): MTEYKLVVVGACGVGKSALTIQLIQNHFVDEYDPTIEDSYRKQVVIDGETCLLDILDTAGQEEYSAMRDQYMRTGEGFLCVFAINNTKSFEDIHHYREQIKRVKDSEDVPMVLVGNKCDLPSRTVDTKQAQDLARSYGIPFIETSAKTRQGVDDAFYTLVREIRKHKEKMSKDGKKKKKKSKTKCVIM

With `C=C(F)C(=O)N1CC[C@H](n2cnc3c(O[C@@H](C)[C@@H]4CCCN4C)nc4c(F)c(-c5cccc(C)c5Cl)c(C)cc4c32)C[C@H]1CC#N` [Example 13, 2-((2S,4S)-4-(7-(2-chloro-3-methylphenyl)-6-fluoro-8-methyl-4-((S)-1-((S)-1-methylpyrrolidin-2-yl)ethoxy)-1H-imidazo[4,5-c]quinolin-1-yl)-1-(2-fluoroacryloyl)piperidin-2-yl)acetonitrile] as the molecule, how does the pIC50 (KRAS G12C) read?
The pIC50 was ≥ 7.30.

And the “Human whole blood stability at 4 hr” value [1]?
The value was “†† (WBS >70% but ≤90%)”.

What about the pIC50 [2] of the same molecule?
The pIC50 was 6.00 to 7.00.

What about the pIC50 (KRAS_G12C pERK) of the same molecule?
Its pIC50 is ≥ 7.30.

Which results are given for `COC/C=C/C(=O)N1CC[C@H](n2nnc3c(O[C@@H](C)[C@@H]4CCCN4C)nc4c(F)c(-c5ncc(F)c6ccccc56)c(C)cc4c32)C[C@H]1CC#N` [Example 21, 2-((2S,4S)-4-(6-fluoro-7-(4-fluoroisoquinolin-1-yl)-8-methyl-4-((S)-1-((S)-1-methylpyrrolidin-2-yl)ethoxy)-1H-[1,2,3]triazolo[4,5-c]quinolin-1-yl)-1-((E)-4-methoxybut-2-enoyl)piperidin-2-yl)acetonitrile]?
pIC50 (KRAS G12C): ≥ 7.30; Human whole blood stability at 4 hr [1]: ††† (WBS >90%); pIC50 [2]: ≥ 7.30; pIC50 (KRAS_G12C pERK): ≥ 7.30
